# Source: patent US10131652B2, “Pyrimidinyloxy benzene derivatives as herbicides” (E. I. DU PONT DE NEMOURS AND COMPANY, priority 2014, dated 2018)
# What was measured:
# Type in all cases: in vivo
# [1] = system: Italian ryegrass (Lolium multiflorum); assay: Test B pre-/postemergence plant response
# Method in brief: (§1)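 Scoring used a 0–100 scale (100 = complete control) by visual comparison with untreated plants after approximately 10 days in the greenhouse. Compounds, in surfactant-containing non-phytotoxic solvent, were sprayed onto soil at planting or onto 2–10 cm seedlings.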
# [2] = system: barnyardgrass (Echinochloa crus-galli); assay: Test B pre-/postemergence plant response
# Method in brief: as §1
# corn (Zea mays) = assay: Test B pre-/postemergence plant response
# Method in brief: as §1
# [3] = system: giant foxtail (Setaria faberii); assay: Test B pre-/postemergence plant response
# Method in brief: as §1
# kochia (Kochia scoparia) = assay: Test B pre-/postemergence plant response
# Method in brief: as §1
# [4] = system: pigweed (Amaranthus retroflexus); assay: Test B pre-/postemergence plant response
# Method in brief: as §1
# [5] = system: ragweed (common ragweed, Ambrosia elatior); assay: Test B pre-/postemergence plant response
# Method in brief: as §1
# [6] = system: wheat (Triticum aestivum); assay: Test B pre-/postemergence plant response
# Method in brief: as §1
# [7] = system: blackgrass (Alopecurus myosuroides); assay: Test B postemergence plant response
# Method in brief: (§2)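 Pots, loam soil + sand; postemergence treatment at 1–2 leaf stage, 2–10 cm; greenhouse ~10 d; visual injury score 0 (none) to 100 (complete control) relative to untreated controls.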
# [8] = system: galium (catchweed bedstraw, Galium aparine); assay: Test B postemergence plant response
# Method in brief: as §2
# [9] = system: barnyardgrass (Echinochloa crus-galli); assay: Test C flooded paddy test plant response; conditions: Flood, 250 g ai/ha; scale of 0 to 100 where 0 is no effect and 100 is complete control; 13 to 15 days
# Method in brief: (§3)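 Readout is a visual 0–100 score (100 = complete control) versus controls at 13–15 days. Plants at 2-leaf stage, flooded to 3 cm, treated through paddy water.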
# [10] = system: ducksalad (Heteranthera limosa); assay: Test C flooded paddy test plant response; conditions: Flood, 250 g ai/ha; scale of 0 to 100 where 0 is no effect and 100 is complete control; 13 to 15 days
# Method in brief: as §3
# rice (Oryza sativa) = assay: Test C flooded paddy test plant response; conditions: Flood, 250 g ai/ha; scale of 0 to 100 where 0 is no effect and 100 is complete control; 13 to 15 days
# Method in brief: as §3
# [11] = system: small-flower umbrella sedge (Cyperus difformis); assay: Test C flooded paddy test plant response; conditions: Flood, 250 g ai/ha; scale of 0 to 100 where 0 is no effect and 100 is complete control; 13 to 15 days
# Method in brief: as §3
# [12] = 31 g ai/ha, Preemergence, 0 to 100 scale where 0 is no effect and 100 is complete control
# [13] = 125 g ai/ha, postemergence, 0 to 100 scale, 0 no effect, 100 complete control
# [14] = Postemergence, 31 g ai/ha, 0 to 100 scale (0 no effect, 100 complete control)
# [15] = Preemergence, 125 g ai/ha, 0 to 100 scale (0 no effect, 100 complete control)
SMILES,"Plant response rating, Ryegrass, Italian [1, 12]","Plant response rating, Ryegrass, Italian [1, 13]","Plant response rating, Ryegrass, Italian [1, 14]","Ryegrass, Italian plant response rating [1, 15]","Plant response rating, Barnyardgrass [2, 12]","Plant response rating, Barnyardgrass [2, 13]","Plant response rating, Barnyardgrass [2, 14]","Barnyardgrass plant response rating [2, 15]","Plant response rating, Corn (corn (Zea mays); [13])","Plant response rating, Corn (corn (Zea mays); [14])","Plant response rating, Foxtail, Giant [3, 12]","Plant response rating, Foxtail, Giant [3, 13]","Plant response rating, Foxtail, Giant [3, 14]","Foxtail, Giant plant response rating [3, 15]","Plant response rating, Kochia (kochia (Kochia scoparia); [12])","Plant response rating, Kochia (kochia (Kochia scoparia); [13])","Plant response rating, Kochia (kochia (Kochia scoparia); [14])",Kochia plant response rating (kochia (Kochia scoparia); [15]),"Plant response rating, Pigweed [4, 12]","Plant response rating, Pigweed [4, 13]",further results
Clc1cnc(Oc2ccccc2-c2ccns2)nc1 [Compound 233],0,0,0,0,0,10,0,0,10,0,0,0,0,0,0,0,0,0,0,20,"Plant response rating, Pigweed [4, 14]: 0; Pigweed plant response rating [4, 15]: 0; Plant response rating, Ragweed [5, 12]: 0; Plant response rating, Ragweed [5, 13]: 0; Plant response rating, Ragweed [5, 14]: 0; Ragweed plant response rating [5, 15]: 0; Plant response rating, Wheat [6, 13]: 0; Plant response rating, Wheat [6, 14]: 0; Plant response rating, Blackgrass [7, 13]: 10; Plant response rating, Blackgrass [7, 14]: 0; Plant response rating, Galium [8, 13]: 0; Plant response rating, Galium [8, 14]: 0; Barnyardgrass plant response rating [9]: 0; Ducksalad plant response rating [10]: 0; Rice plant response rating (rice (Oryza sativa)): 0; Sedge, Umbrella plant response rating [11]: 0"
Brc1cnc(Oc2ccccc2-c2ccns2)nc1 [Compound 234],0,0,0,0,0,0,0,0,10,0,0,0,0,0,0,0,0,0,0,20,"Plant response rating, Pigweed [4, 14]: 0; Pigweed plant response rating [4, 15]: 0; Plant response rating, Ragweed [5, 12]: 0; Plant response rating, Ragweed [5, 13]: 10; Plant response rating, Ragweed [5, 14]: 0; Plant response rating, Wheat [6, 13]: 0; Plant response rating, Wheat [6, 14]: 0; Plant response rating, Blackgrass [7, 13]: 10; Plant response rating, Blackgrass [7, 14]: 0; Plant response rating, Galium [8, 13]: 0; Plant response rating, Galium [8, 14]: 0; Barnyardgrass plant response rating [9]: 0; Ducksalad plant response rating [10]: 0; Rice plant response rating (rice (Oryza sativa)): 0; Sedge, Umbrella plant response rating [11]: 0"
CC(C)(F)c1cc(-c2ccccc2Oc2ncc(Cl)cn2)no1 [Compound 236],0,20,0,30,10,30,0,80,30,0,10,30,0,90,30,90,20,100,60,70,"Plant response rating, Pigweed [4, 14]: 30; Pigweed plant response rating [4, 15]: 100; Plant response rating, Ragweed [5, 12]: 0; Plant response rating, Ragweed [5, 13]: 20; Plant response rating, Ragweed [5, 14]: 0; Ragweed plant response rating [5, 15]: 0; Plant response rating, Wheat [6, 13]: 20; Plant response rating, Wheat [6, 14]: 0; Plant response rating, Blackgrass [7, 13]: 40; Plant response rating, Blackgrass [7, 14]: 20; Plant response rating, Galium [8, 13]: 100; Plant response rating, Galium [8, 14]: 30; Barnyardgrass plant response rating [9]: 0; Ducksalad plant response rating [10]: 75; Rice plant response rating (rice (Oryza sativa)): 0; Sedge, Umbrella plant response rating [11]: 40"
Cn1nc(-c2ccccc2Oc2ncc(Cl)cn2)cc1C(F)(F)F [Compound 237],0,0,0,0,0,0,0,0,0,0,0,0,0,0,0,0,0,0,0,0,"Plant response rating, Pigweed [4, 14]: 0; Pigweed plant response rating [4, 15]: 0; Plant response rating, Ragweed [5, 12]: 0; Plant response rating, Ragweed [5, 13]: 0; Plant response rating, Ragweed [5, 14]: 0; Ragweed plant response rating [5, 15]: 0; Plant response rating, Wheat [6, 13]: 0; Plant response rating, Wheat [6, 14]: 0; Plant response rating, Blackgrass [7, 13]: 0; Plant response rating, Blackgrass [7, 14]: 0; Plant response rating, Galium [8, 13]: 0; Plant response rating, Galium [8, 14]: 0; Barnyardgrass plant response rating [9]: 0; Ducksalad plant response rating [10]: 0; Rice plant response rating (rice (Oryza sativa)): 0; Sedge, Umbrella plant response rating [11]: 0"
Cc1csc(-c2c(C#N)cccc2Oc2ncc(Cl)cn2)c1 [Compound 238],0,0,0,0,0,30,0,40,20,0,0,10,0,20,0,80,20,0,0,20,"Plant response rating, Pigweed [4, 14]: 10; Pigweed plant response rating [4, 15]: 10; Plant response rating, Ragweed [5, 12]: 0; Plant response rating, Ragweed [5, 13]: 0; Plant response rating, Ragweed [5, 14]: 0; Ragweed plant response rating [5, 15]: 0; Plant response rating, Wheat [6, 13]: 0; Plant response rating, Wheat [6, 14]: 0; Plant response rating, Blackgrass [7, 13]: 0; Plant response rating, Blackgrass [7, 14]: 0; Plant response rating, Galium [8, 13]: 40; Plant response rating, Galium [8, 14]: 0; Barnyardgrass plant response rating [9]: 20; Ducksalad plant response rating [10]: 45; Rice plant response rating (rice (Oryza sativa)): 15; Sedge, Umbrella plant response rating [11]: 65"
FC(F)c1ccc(-c2ccccc2Oc2ncc(Cl)cn2)o1 [Compound 239],0,0,0,0,0,0,0,0,20,0,0,0,0,0,0,0,0,0,0,20,"Plant response rating, Pigweed [4, 14]: 0; Pigweed plant response rating [4, 15]: 0; Plant response rating, Ragweed [5, 12]: 0; Plant response rating, Ragweed [5, 13]: 0; Plant response rating, Ragweed [5, 14]: 0; Ragweed plant response rating [5, 15]: 0; Plant response rating, Wheat [6, 13]: 0; Plant response rating, Wheat [6, 14]: 0; Plant response rating, Blackgrass [7, 13]: 0; Plant response rating, Blackgrass [7, 14]: 0; Plant response rating, Galium [8, 13]: 0; Plant response rating, Galium [8, 14]: 0; Barnyardgrass plant response rating [9]: 0; Ducksalad plant response rating [10]: 0; Rice plant response rating (rice (Oryza sativa)): 0; Sedge, Umbrella plant response rating [11]: 0"
